Experiments:
Test in all cases: relative viability (nuclei count vs DMSO), 5 days (fraction); higher = more cells survive
Idelalisib + Bortezomib = compound: CC[C@H](Nc1ncnc2[nH]cnc12)c1nc2cccc(F)c2c(=O)n1-c1ccccc1 [Idelalisib] + CC(C)C[C@H](NC(=O)[C@H](Cc1ccccc1)NC(=O)c1cnccn1)B(O)O [Bortezomib] (partner 0.002 µM)
In short: (§1)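 One day after seeding in 1536-well plates, lung cancer cell lines were dosed by pin tool. Dosing was either single-drug or a fixed anchor-drug dose plus five library-drug doses (not always all listed) in √10 steps. After 5 days, nuclei were stained in one fix-and-stain step and counted on 4× images, and relative viability is the nuclei count of treated wells over that of vehicle wells, given as the median of duplicate plates.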

Idelalisib + Crizotinib = compound: CC[C@H](Nc1ncnc2[nH]cnc12)c1nc2cccc(F)c2c(=O)n1-c1ccccc1 [Idelalisib] + C[C@@H](Oc1cc(-c2cnn(C3CCNCC3)c2)cnc1N)c1c(Cl)ccc(F)c1Cl [Crizotinib] (partner 1 µM)
In short: as §1

Pemetrexed + Bortezomib = compound: Nc1nc2[nH]cc(CCc3ccc(C(=O)N[C@@H](CCC(=O)O)C(=O)O)cc3)c2c(=O)[nH]1 [Pemetrexed] + CC(C)C[C@H](NC(=O)[C@H](Cc1ccccc1)NC(=O)c1cnccn1)B(O)O [Bortezomib] (partner 0.002 µM)
In short: as §1

Idelalisib + Linsitinib = compound: CC[C@H](Nc1ncnc2[nH]cnc12)c1nc2cccc(F)c2c(=O)n1-c1ccccc1 [Idelalisib] + C[C@]1(O)C[C@@H](c2nc(-c3ccc4ccc(-c5ccccc5)nc4c3)c3c(N)nccn32)C1 [Linsitinib] (partner 1 µM)
In short: as §1

Cell Line: UMC-11
- relative viability (Idelalisib + Bortezomib; first compound 0.04 µM): 0.477
- relative viability (Idelalisib + Bortezomib; first compound 0.1265 µM): 0.858
- relative viability (Idelalisib + Bortezomib; first compound 0.4 µM): 0.744
- relative viability (Idelalisib + Bortezomib; first compound 1.265 µM): 0.771
- relative viability (Idelalisib + Bortezomib; first compound 4 µM): 0.521
- relative viability (Idelalisib + Crizotinib; first compound 0.04 µM): 0.708
- relative viability (Idelalisib + Crizotinib; first compound 0.1265 µM): 0.694
- relative viability (Idelalisib + Crizotinib; first compound 0.4 µM): 0.583
- relative viability (Idelalisib + Crizotinib; first compound 1.265 µM): 0.541
- relative viability (Idelalisib + Crizotinib; first compound 4 µM): 0.57
- relative viability (Pemetrexed + Bortezomib; first compound 0.002 µM): 0.573
- relative viability (Pemetrexed + Bortezomib; first compound 0.006325 µM): 0.639
- relative viability (Pemetrexed + Bortezomib; first compound 0.02 µM): 0.682
- relative viability (Pemetrexed + Bortezomib; first compound 0.06325 µM): 0.991
- relative viability (Pemetrexed + Bortezomib; first compound 0.2 µM): 0.698
- relative viability (Idelalisib + Linsitinib; first compound 0.04 µM): 0.912
- relative viability (Idelalisib + Linsitinib; first compound 0.1265 µM): 1.02
- relative viability (Idelalisib + Linsitinib; first compound 0.4 µM): 0.966
- relative viability (Idelalisib + Linsitinib; first compound 1.265 µM): 1.01
- relative viability (Idelalisib + Linsitinib; first compound 4 µM): 1.06
